Source: ChEMBL document CHEMBL3856270, “Structure-activity relationship of cyclic pentapeptide malformins as fibrinolysis enhancers” (Bioorg Med Chem Lett, 2016)
Activity calls are given as the source filed them. The calls are words filed in the database; no cut-off is given here.

What was measured:
[1] = Cytotoxicity against human U937 cells assessed as reduction in cell viability after 24 hrs by MTT assay; assay type: toxicity, cell-based, U-937; conditions: for IC50 at 24 h: human, U937 cells
U-937 [2] = experiment: Pro-fibrinolytic activity in human U937 cells supplemented with human platelet-poor plasma assessed as [125I]-fibrin degradation after 3 hrs by gamma counting method; assay type: functional, cell-based
U-937 [3] = experiment: Pro-fibrinolytic activity in human U937 cells supplemented with human platelet-poor plasma assessed as [125I]-fibrin degradation at >20 uM after 3 hrs by gamma counting method; assay type: functional, cell-based
U-937 [4] = experiment: Pro-fibrinolytic activity in human U937 cells supplemented with human platelet-poor plasma assessed as [125I]-fibrin degradation up to 5 uM after 3 hrs by gamma counting method; assay type: functional, cell-based

Molecule `N[C@@H]1CSSC[C@H](C(=O)O)NC1=O` has an IC50 at 24 h [1] greater than 5000 nM.
For `CC(C)C[C@H]1NC(=O)[C@H](C(C)C)NC(=O)[C@H]2CSSC[C@@H](NC(=O)[C@H](CCCCN)NC1=O)C(=O)N2`, the IC50 at 24 h [1] was greater than 5000 nM.
With `CC[C@H](C)[C@@H]1NC(=O)[C@@H](CC(C)C)NC(=O)[C@H](C(C)C)NC(=O)[C@H]2CSSC[C@@H](NC1=O)C(=O)N2` (stereo in doubt; form 2) [listing 1 of 2 here] the Activity (U-937 [2]) was “Dose-dependent effect”.
In the case of `CC[C@H](C)[C@H](N)C(=O)N[C@@H]1CSSC[C@H](C(=O)N[C@H](C(=O)N[C@H](CC(C)C)C(=O)O)C(C)C)NC1=O`, the IC50 at 24 h [1] is reported as greater than 5000 nM.
For `CC[C@H](C)[C@@H]1NC(=O)[C@@H](CC(C)C)NC(=O)[C@H](C(C)C)NC(=O)[C@@H](CSC(c2ccccc2)(c2ccccc2)c2ccccc2)NC(=O)[C@@H](CSC(c2ccccc2)(c2ccccc2)c2ccccc2)NC1=O`, the IC50 at 24 h [1] was greater than 5000 nM.
Work on `CC[C@H](C)[C@@H]1NC(=O)[C@@H](CCCCN)NC(=O)[C@H](C(C)C)NC(=O)[C@H]2CSSC[C@@H](NC1=O)C(=O)N2` yielded an IC50 at 24 h [1] greater than 5000 nM.
`CC[C@H](C)[C@@H]1NC(=O)[C@@H](CC(C)C)NC(=O)[C@H](CCCCN)NC(=O)[C@H]2CSSC[C@@H](NC1=O)C(=O)N2` showed an IC50 at 24 h [1] greater than 5000 nM.
`CC[C@H](C)[C@@H]1NC(=O)[C@@H](CC(C)C)NC(=O)[C@H](C(C)C)NC(=O)[C@@H](CSC)NC(=O)[C@@H](CSC)NC1=O` gave an IC50 at 24 h [1] greater than 5000 nM.
With `CC[C@H](C)[C@@H]1NC(=O)[C@@H](CC(C)C)NC(=O)[C@H](C(C)C)NC(=O)[C@@H](CS)NC(=O)[C@@H](CS)NC1=O` the Activity (U-937 [3]) was “Active” and the IC50 at 24 h [1] was greater than 5000 nM.
For `CC(C)C[C@H]1NC(=O)[C@H](C(C)C)NC(=O)[C@H]2CSSC[C@@H](NC(=O)[C@H](Cc3ccccc3)NC1=O)C(=O)N2`, the Activity (U-937 [4]) was “Active” and the IC50 at 24 h [1] was less than 100 nM.
For `CC[C@H](C)[C@@H]1NC(=O)[C@@H](CCCCNC(=O)OC(C)(C)C)NC(=O)[C@H](C(C)C)NC(=O)[C@H]2CSSC[C@@H](NC1=O)C(=O)N2`, the Activity (U-937 [4]) was “Active” and the IC50 at 24 h [1] was 200 nM.
With `CC[C@H](C)[C@@H]1NC(=O)[C@@H](Cc2ccccc2)NC(=O)[C@H](C(C)C)NC(=O)[C@H]2CSSC[C@@H](NC1=O)C(=O)N2` the Activity (U-937 [4]) was “Active” and the IC50 at 24 h [1] was 1300 nM.
With `CC[C@H](C)[C@@H]1NC(=O)[C@@H](CC(C)C)NC(=O)[C@H](Cc2ccccc2)NC(=O)[C@H]2CSSC[C@@H](NC1=O)C(=O)N2` the Activity (U-937 [4]) was “Active” and the IC50 at 24 h [1] was less than 100 nM.
`CC[C@H](C)[C@@H]1NC(=O)[C@@H](CC(C)C)NC(=O)[C@H](C(C)C)NC(=O)[C@H]2CSSC[C@@H](NC1=O)C(=O)N2` (stereo in doubt; form 2) [listing 2 of 2 here] showed an IC50 at 24 h [1] of 760 nM.
In the case of `CC[C@H](C)[C@@H]1NC(=O)[C@@H](CC(C)C)NC(=O)[C@H](CCCCNC(=O)OC(C)(C)C)NC(=O)[C@H]2CSSC[C@@H](NC1=O)C(=O)N2`, the Activity (U-937 [4]) is reported as “Active” and the IC50 at 24 h [1] is reported as less than 100 nM.
Work on `CC[C@H](C)[C@@H]1NC(=O)[C@@H](CC(C)C)NC(=O)[C@H](C)NC(=O)[C@H]2CSSC[C@@H](NC1=O)C(=O)N2` yielded an IC50 at 24 h [1] of 1400 nM.
In the case of `CC[C@H](C)[C@@H]1NC(=O)[C@@H](CC(C)C)NC(=O)[C@H](C(C)C)NC(=O)[C@H]2CSSC[C@@H](NC1=O)C(=O)N2` (stereo in doubt; form 1) [listing 1 of 2 here], the Activity (U-937 [2]) is reported as “Dose-dependent effect”.
In the case of `CC(C)C[C@H]1NC(=O)[C@H](C(C)C)NC(=O)[C@H]2CSSC[C@@H](NC(=O)[C@H](C)NC1=O)C(=O)N2`, the Activity (U-937 [4]) is reported as “Active” and the IC50 at 24 h [1] is reported as 2800 nM.
In the case of `CC(C)C[C@H]1NC(=O)[C@H](C(C)C)NC(=O)[C@H]2CSSC[C@@H](NC(=O)[C@H](CCCCNC(=O)OC(C)(C)C)NC1=O)C(=O)N2`, the Activity (U-937 [4]) is reported as “Active” and the IC50 at 24 h [1] is reported as less than 100 nM.
`CC[C@H](C)[C@@H]1NC(=O)[C@@H](CC(C)C)NC(=O)[C@H](C(C)C)NC(=O)[C@H]2CSSC[C@@H](NC1=O)C(=O)N2` (stereo in doubt; form 1) [listing 2 of 2 here] gave an IC50 ([1]; u-937) of 800 nM.
In the case of `CC[C@H](C)[C@@H]1NC(=O)[C@@H](C)NC(=O)[C@H](C(C)C)NC(=O)[C@H]2CSSC[C@@H](NC1=O)C(=O)N2`, the Activity (U-937 [4]) is reported as “Active” and the IC50 at 24 h [1] is reported as 2200 nM.
